Test results from patent US20110054033A1, “METHODS OF USING ABSCISIC ACID FOR AMELIORATING HYPERTENSION AND VASCULAR INFLAMMATION” (Virginia Tech Intellectual Properties, Inc., priority 2009, published 2011).

Legend:
db/db mice = conditions: Guri et al., cited from earlier work
eNOS = eNOS mRNA expression in HAECs by real time PCR; format: cell-based, human; conditions: 10 μM ABA, 24 hours, P<0.02
[1] = FPLC separation of plasma lipoproteins; format: in vivo; conditions: ApoE-deficient mice, FIG. 2
Experimental: (§1) FIG. 2 is a graph showing fast performance liquid chromatography (FPLC) separation of plasma lipoproteins performed on a Superose 6 column using buffer containing 0.15M NaCl, 0.01M Na2HPO4 and 1 mM EDTA at a flow rate of 0.5 ml/min. Forty 0.5 ml fractions were collected and cholesterol was measured in fractions 10-40. Fractions 15-20 contain VLDL, fractions 21-27 contain LDL and fractions 28-34 contain HDL.
as §1, with “Plasma cholesterol and triglyceride levels were measured using kits from Raichem (San Diego, Calif.) adapted for microtiter plate assays. Plasma free fatty acids were measured using the NEFA-HR(2) kit from Wako. Fast” for “FIG. 2 is a graph showing fast”, “lipoproteins was” for “lipoproteins”

[2] = system: peroxisome proliferator-activated receptor γ (PPAR γ); test: Aortic gene expression by real-time RT-PCR: PPAR γ and responsive genes; format: in vivo, mice; conditions: day 84
Experimental: (§2) FIG. 6 are graphs showing that ABA decreases immune cell infiltration in aortas of ApoE−/− mice and reduces pro-inflammatory gene expression. ApoE −/− mice were fed high fat diets created with or without 100 mg/kg diet racemic abscisic acid (ABA). (A) Infiltration of F4/80^+CD11b^+ macrophages and CD4^+ T-cells into the aorta were assessed with flow cytometry. Gene expression in the aorta of pro-inflammatory markers (B) vascular cell adhesion molecule 1 (VCAM-1), (C) monocyte chemoattractant protein 1 (MCP-1), (D) E-selectin, (F) peroxisome proliferator-activated receptor γ (PPAR γ), and (G) CD36 were measured as a ratio to the housekeeping gene β-actin. (H) MCP-1 protein concentrations (pg/mL) were measured by ELISA. Data were analyzed as a completely randomized design.
(§3) Total RNA was isolated from aortas using the RNA isolation Minikit (Qiagen) according to the manufacturer's instructions. […] Each gene amplicon was purified with the MiniElute PCR Purification Kit (Qiagen) and quantitated on an agarose gel by using a DNA mass ladder (Promega). […]
(§4) Complementary DNA (cDNA) concentrations for genes of interest were examined by real-time quantitative PCR using an iCycler IQ System and the iQ SYBR green supermix (Bio-Rad). […] Results are presented as a starting quantity of target cDNA (picograms) per microgram of total RNA. […]

[3] = system: monocyte chemoattractant protein 1 (MCP-1); test: Aortic gene expression by real-time RT-PCR: MCP-1; format: in vivo, mice; conditions: P=0.10
Experimental: as §2, §3, §4

MCP-1 = MCP-1 concentrations in plasma by ELISA; format: in vivo, mice; conditions: P=0.10
Experimental: as §2
A Ready-set-go MCP-1 ELISA (ebioscience) was used to quantify plasma MCP-1 according to the manufacturer's instructions.

[4] = Body weight and fasted plasma metabolic parameters of ApoE-deficient mice fed high-fat diet with or without ABA; format: in vivo
Experimental: Five-week old ApoE −/− mice (n=40) were housed at the animal facilities at Virginia Polytechnic Institute and State University in a room maintained at 75° F., with a 12:12 h light-dark cycle starting from 6:00 AM. All experimental procedures were approved by the Institutional Animal Care and Use Committee of Virginia Polytechnic Institute and State University and met or exceeded requirements of the Public Health Service/National Institutes of Health and the Animal Welfare Act. Mice were fed a high saturated fat (AIN-93G-based) diet containing 19.6% fat and 0.2% total cholesterol and obtaining 40.1% of Kcal from fat (4.4 Kcal/g) with or without 100 mg/kg of a racemic ABA mixture (Guri et al., J. Nutr. Biochem. 19:216-28, 2008). Systolic blood pressure was assessed on days 0, 28, 56, and 72. On day 84, fasted mice (12 h) were sacrificed by carbon dioxide asphyxiation and blood was withdrawn through cardiac puncture. Glucose concentrations of whole blood were assessed with an Accu-Chek® Glucometer (Roche, Indianapolis, Ind.) and plasma insulin was measured through insulin ELISA (Millipore, Billerica, Mass.). Aortas were collected for analysis of immune cell infiltration, histological evaluation of atherosclerotic lesions, and gene expression analyses.
as §1, with “Plasma cholesterol and triglyceride levels were measured using kits from Raichem (San Diego, Calif.) adapted for microtiter plate assays. Plasma free fatty acids were measured using the NEFA-HR(2) kit from Wako. Fast” for “FIG. 2 is a graph showing fast”, “lipoproteins was” for “lipoproteins”

[5] = ApoE-deficient mice, high-fat diet, 84 days
[6] = fasted plasma, day 84, ABA 100 mg/kg diet, least square mean ± standard error
[7] = fasted plasma, day 84, ABA 100 mg/kg diet, least square mean ± standard error, * P<0.05 vs control

CC1=CC(=O)CC(C)(C)C1(O)/C=C/C(C)=C\C(=O)O (racemic) [ABA, abscisic acid]
Glucose tolerance (db/db mice; db/db mice, 2007 and 2008): improved glucose tolerance | Macrophage infiltration into white adipose tissue (db/db mice; obese db/db mice, 2008): significantly reduces macrophage infiltration | Reduction in MCP-1 expression in the adipose tissue stromal-vascular fraction (db/db mice; obese db/db mice, 2008): approximately 15 fold | eNOS mRNA levels vs vehicle (eNOS): significantly (P<0.02) increased | FPLC lipoprotein cholesterol profile vs control diet [1]: slight shift in the profiles to lower VLDL and higher LDL and HDL | Expression of PPAR γ or its responsive genes in the aorta vs control [2]: no differences | MCP-1 mRNA expression in the aortic roots vs control [3]: reduced, though not to statistical significance | Plasma MCP-1 concentrations vs control (MCP-1): decreased | Body Weight ([4]; ApoE-deficient mice, high-fat diet with ABA 100 mg/kg, day 84, least square mean ± standard error): 30.8 ± 0.63 g | Effect on body weights vs control diet [4, 5]: no significant effect | Effect on insulin vs control diet [4, 5]: no significant effect | Effect on plasma glucose vs control diet [4, 5]: no significant effect | Effect on plasma non-esterified fatty acid concentration vs control diet [4, 5]: significantly raise | Effect on plasma triglyceride (TG) concentration vs control diet [4, 5]: significantly raise | Effect on total cholesterol levels vs control diet [4, 5]: no significant effect | Glucose ([4]; fasted (12 h), day 84, ABA 100 mg/kg diet, least square mean ± standard error): 194.6 ± 11.9 mg/dL | Cholesterol [4, 6]: 339.0 ± 25.1 mg/dL | Insulin [4, 6]: 0.432 ± 0.05 ng/mL | NEFAs (non-esterified fatty acids) [4, 7]: 2.05 ± 0.17* mequiv./mL | TGs (triglycerides) [4, 7]: 136.1 ± 12.3* mg/dL | HOMA-IR (homeostasis model assessment-insulin resistance) ([4]; fasted, day 84, ABA 100 mg/kg diet, least square mean ± standard error): 4.93 ± 0.76
